Data published in patent US20180362993A1, “ELICITOR-DERIVED PEPTIDES AND USE THEREOF” (Plant Health Care, Inc., priority 2017, published 2018).
Marks after values point to notes of the source that are not given here.

Experiments:
corn = assay: Drought resistance in seed-coated corn; assay type: in vivo; conditions: for % Change Dry Weight / % Change Fresh Weight: vs mock
Method: The effectiveness of peptide treatment in reducing the effects of drought stress was assessed in corn using a seed treatment strategy. This strategy largely mirrors example 2, except that the seeds were coated with a peptide formulation rather than a foliar spray application.
Seeds were first sieved using mesh screens to a uniform size (21-23/64 inches). The seeds were then coated with a mixture of peptide, Unicoat™ seed coat polymer, and a minimal volume of water in a Hege 11 Liquid Seed Treater (Wintersteiger) according to manufacturer recommendations. Seeds were coated with one of the following: (i) 0.12 μg peptide/seed, (ii) […], or (iii) a ‘mock’ treatment that included no peptide. The amount of peptide per seed assumes complete transfer of the peptide to seed surfaces in the seed coating chamber. Losses during coating were not considered.
(§1) 3.5 inch pots were filled (approximately 0.2 L per pot) with Sunshine #1 mix (SunGro Horticulture), fertilized with 14-14-14 N,P,K Osmocote (Everris), and mixed for 20 minutes using a soil mixer M-5. Seeds were planted at a depth of 0.5 inch for germination. The pots were immediately irrigated by submergence then drained after about an hour. For each treatment group, 24 replicate seeds were planted. Plants were grown in a greenhouse under 16 hour light days at ˜75° F. and 8 hour dark nights at ˜65° F. Prior to drought conditions, the plants were well-watered.
Three days after planting, the plants were randomized using a complete block design and subjected to a cyclic drought stress. Drought stress was imposed by withholding water for 2-3 days until the majority of plants were under medium to severe water stress. The severity of the stress was determined by the weight of the pot and visual determination of leaf curling. Once drought stress was attained, the pots were watered to full saturation. Full Saturation (100% pot capacity) is defined as the weight of the pot filled with water-saturated soil minus the weight of the filled pot prior to adding water. Drought stress was imposed for a total of 18 days.
(§2) At the end of the experiment (18 days after initiation of drought stress), the plant was then harvested for fresh and dry weights. Individual plants were cut near the soil surface and weighed immediately (fresh weight). The plants were then placed into labeled brown paper bags and dried in a 70° C. oven for 72 hours. A dry weight was then obtained.
The following calculation was performed on the collected data: Fresh weight at harvest and dry weight at harvest for the plants grown from peptide-treated seeds were expressed as a % change relative to the ‘mock’ treated plants.

soy = assay: Drought resistance in seed-treated soy; assay type: in vivo; conditions: for % Change Dry Weight / % Change Fresh Weight: vs mock; for Result in the seed treated drought study for soy, in words: soy seed treatment
Method: The effectiveness of peptide treatment in reducing drought stress was assessed in soy using a seed treatment strategy. This strategy largely mirrors examples 3 and 4.
Seeds were first sieved using mesh screens to a uniform size (14-17 mesh). The seeds were then coated with a mixture of peptide and Unicoat™ seed coat polymer in a Hege 11 Liquid Seed Treater (Wintersteiger) according to manufacturer recommendations. […]
as §1
Seven days after germination the heights of the plants were measured. This was determined as the distance between the soil surface and the shoot apical meristems (buds). The plants were randomized using a complete block design and subjected to a cyclic drought stress. Drought stress was imposed by withholding water for 3-4 days until the majority of plants were under medium to severe water stress. The severity of the stress was determined by the weight of the pot and visual determination of loss of turgor in the leaves (drooping). Once drought stress was attained, the pots were watered to full saturation. Full Saturation (100% pot capacity) is defined as the weight of the pot filled with water-saturated soil minus the weight of the filled pot prior to adding water. Drought stress was imposed for a total of 18 days.
as §2, with “the plant above the soil surface was then” for “the plant was then”, “then obtained. The following calculation was performed on the collected data: Fresh weight at harvest, and dry weight at harvest for the peptide-treated plants were expressed as a % change relative to the ‘mock’ treated plants.” for “then obtained.”

[1] = corn seed treatment 0.12 μg/seed
[2] = corn seed treatment 1.05 μg/seed

AGQTSGLSPLEQLLKIFADITQSLFG (P13-23 peptide) [Peptide P13-23]
Drought tolerance activity in corn, result in words (corn; corn seed treatment): affords activity | % Change Dry Weight (corn; [1]): 0.94% | % Change Fresh Weight (corn; [1]): 4.89** % | % Change Dry Weight (corn; [2]): 2.16% | % Change Fresh Weight (corn; [2]): 5.54** % | % Change Dry Weight (soy; soy seed treatment 0.1 μg/seed): 6.43% | % Change Fresh Weight (soy; soy seed treatment 0.1 μg/seed): 5.08%

AGQTSGMSPLEQLMKIFADITQSLFGDQDG (P13-40 peptide) [Peptide P13-40]
% Change Dry Weight (corn; [2]): 0.76% | % Change Fresh Weight (corn; [2]): 5.86* % | Result in the seed treated drought study for soy, in words (soy): significant results | % Change Dry Weight (soy; soy seed treatment 0.1 μg/seed): 10.27** % | % Change Fresh Weight (soy; soy seed treatment 0.1 μg/seed): 12.53** %

AGQTSGMSPMEELMKIFADITQSLFGDQDG (P13-45 peptide) [Peptide P13-45]
% Change Dry Weight (corn; [1]): 6.05* % | % Change Fresh Weight (corn; [1]): 8.54** % | % Change Dry Weight (soy; soy seed treatment 0.9 μg/seed): 3.17% | % Change Fresh Weight (soy; soy seed treatment 0.9 μg/seed): 3.6%

AGQTSGMSPMEQLLKIFADITQSLFGDQDG (P13-39 peptide) [Peptide P13-39]
% Change Dry Weight (corn; [2]): 3.10% | % Change Fresh Weight (corn; [2]): 5.09** % | % Change Dry Weight (soy; soy seed treatment 0.1 μg/seed): 3.26% | % Change Fresh Weight (soy; soy seed treatment 0.1 μg/seed): 3.22%

AGQTSGMSPMEQLMEIFADITQSLFGDQDGK (P13-22 peptide) [Peptide P13-22]
% Change Dry Weight (corn; [2]): 1.66% | % Change Fresh Weight (corn; [2]): 3.41% | % Change Dry Weight (soy; soy seed treatment 0.1 μg/seed): 4.36% | % Change Fresh Weight (soy; soy seed treatment 0.1 μg/seed): 4.91%

AGQTSGMSPMEQLMEIFADITQSLFGDQDGR (P13-20 peptide) [Peptide P13-20]
Drought tolerance activity in corn, result in words (corn; corn seed treatment): affords activity | % Change Dry Weight (corn; [2]): 3.23% | % Change Fresh Weight (corn; [2]): 6.87** % | % Change Dry Weight (soy; soy seed treatment 0.1 μg/seed): −5.02% | % Change Fresh Weight (soy; soy seed treatment 0.1 μg/seed): −5.86** %

AGQTSGMSPMEQLMEIFADITQSLFGDQDR (P13-56 peptide) [Peptide P13-56]
% Change Dry Weight (corn; [1]): 0.44% | % Change Fresh Weight (corn; [1]): 1.91%

AGQTSGMSPMEQLMEIFADITQSLFGDQR (P13-57 peptide) [Peptide P13-57]
% Change Dry Weight (corn; [2]): −0.68% | % Change Fresh Weight (corn; [2]): 1.90%

AGQTSGMSPMEQLMEIFADITQSLFGDR (P13-58 peptide) [Peptide P13-58]
% Change Dry Weight (corn; [1]): 2.83% | % Change Fresh Weight (corn; [1]): −4.07%

AGQTSGMSPMEQLMKIEADITQSLFGDQDG (P13-52 peptide) [Peptide P13-52]
Result for dry weight, in words (corn; corn seed treatment): positive | % Change Dry Weight (corn; [2]): 4.49** % | % Change Fresh Weight (corn; [2]): −5.08* %

AGQTSGMSPMEQLMKIFADITESLFGDQDG (P13-43 peptide) [Peptide P13-43]
% Change Dry Weight (corn; [1]): −0.75% | % Change Fresh Weight (corn; [1]): 6.2* % | % Change Dry Weight (corn; [2]): 6.73** % | % Change Fresh Weight (corn; [2]): 5.04% | % Change Dry Weight (soy; soy seed treatment 0.1 μg/seed): 2.37% | % Change Fresh Weight (soy; soy seed treatment 0.1 μg/seed): 1.96%

AGQTSGMSPMEQLMKIFADITQSLFGDEDG (P13-44 peptide) [Peptide P13-44]
% Change Dry Weight (corn; [1]): 2.73% | % Change Fresh Weight (corn; [1]): 7.76** % | % Change Dry Weight (corn; [2]): 3.44% | % Change Fresh Weight (corn; [2]): 9.15** % | Result in the seed treated drought study for soy, in words (soy): significant results | % Change Dry Weight (soy; soy seed treatment 0.1 μg/seed): 10.93** % | % Change Fresh Weight (soy; soy seed treatment 0.1 μg/seed): 10.54** %

AGQTSGMSPMEQLMKIFADITQSLFGDQ (P13-17 peptide) [Peptide P13-17]
% Change Dry Weight (corn; [2]): 1.09% | % Change Fresh Weight (corn; [2]): 1.51% | Result in the seed treated drought study for soy, in words (soy): significant results | % Change Dry Weight (soy; soy seed treatment 0.1 μg/seed): 9.48** % | % Change Fresh Weight (soy; soy seed treatment 0.1 μg/seed): 8.02* %

AGQTSGMSPMEQLMKILADITQSLLGDQDG (P13-33 peptide) [Peptide P13-33]
Drought tolerance activity in corn, result in words (corn; corn seed treatment): negative | % Change Dry Weight (corn; [2]): 2.59% | % Change Fresh Weight (corn; [2]): −1.28%

AGQTSGMSPMEQLMKLFADLTQSLFGDQDG (P13-30 peptide) [Peptide P13-30]
Drought tolerance activity in corn, result in words (corn; corn seed treatment): positive | % Change Dry Weight (corn; [1]): 3.01% | % Change Fresh Weight (corn; [1]): 6.19* % | % Change Dry Weight (corn; [2]): 2.73% | % Change Fresh Weight (corn; [2]): 8.68** % | Result in the seed treated drought study for soy, in words (soy): significant results | % Change Dry Weight (soy; soy seed treatment 0.9 μg/seed): 6.17% | % Change Fresh Weight (soy; soy seed treatment 0.9 μg/seed): 9.41* %

LEELEELLEIFEEIEEELF (P13-35 peptide) [Peptide P13-35]
Drought tolerance activity in corn, result in words (corn; corn seed treatment): preservation of activity | % Change Dry Weight (corn; [1]): 5.68** % | % Change Fresh Weight (corn; [1]): 2.45% | % Change Dry Weight (soy; soy seed treatment 0.1 μg/seed): 2.56% | % Change Fresh Weight (soy; soy seed treatment 0.1 μg/seed): 1.55%

MEEMEQLMKIFEEIEQELFEEEE (P13-37 peptide) [Peptide P13-37]
Drought tolerance activity in corn, result in words (corn; corn seed treatment): preservation of activity | % Change Dry Weight (corn; [2]): 5.53** % | % Change Fresh Weight (corn; [2]): 7.67** % | % Change Dry Weight (soy; soy seed treatment 0.9 μg/seed): 0.48% | % Change Fresh Weight (soy; soy seed treatment 0.9 μg/seed): 0.58%

P13-47: P13 peptide variant tested in corn seed treatment, SEQ ID NO: 69; sequence not printed in the text (AGQTSGESPMEQLMKIFADITQSLFGDQDG; P13-47 peptide) [Peptide P13-47]
% Change Dry Weight (corn; [2]): −1.34% | % Change Fresh Weight (corn; [2]): −3.42%

P13-48: P13 peptide variant tested in corn seed treatment, SEQ ID NO: 70; sequence not printed in the text (AGQTSGMSPEEQLMKIFADITQSLFGDQDG; P13-48 peptide) [Peptide P13-48]
% Change Dry Weight (corn; [2]): −1.83% | % Change Fresh Weight (corn; [2]): −1.65%

P13-49: P13 peptide variant tested in corn seed treatment, SEQ ID NO: 71; sequence not printed in the text (AGQTSGMSPMEQEMKIFADITQSLFGDQDG; P13-49 peptide) [Peptide P13-49]
% Change Dry Weight (corn; [1]): 0.79% | % Change Fresh Weight (corn; [1]): −4.24%

P13-50: P13 peptide variant tested in corn seed treatment, SEQ ID NO: 72; sequence not printed in the text (AGQTSGMSPMEQLEKIFADITQSLFGDQDG; P13-50 peptide) [Peptide P13-50]
% Change Dry Weight (corn; [1]): 0.49% | % Change Fresh Weight (corn; [1]): −3.95%

P13-51: P13 peptide variant tested in corn seed treatment, SEQ ID NO: 73; sequence not printed in the text (AGQTSGMSPMEQLMKEFADITQSLFGDQDG; P13-51 peptide) [Peptide P13-51]
% Change Dry Weight (corn; [2]): 0.64% | % Change Fresh Weight (corn; [2]): −4.70%

P13-53: P13 peptide variant tested in corn seed treatment, SEQ ID NO: 75; sequence not printed in the text (AGQTSGMSPMEQLMKIFADETQSLFGDQDG; P13-53 peptide) [Peptide P13-53]
% Change Dry Weight (corn; [1]): 0.48% | % Change Fresh Weight (corn; [1]): −2.19%

P13-54: P13 peptide variant tested in corn seed treatment, SEQ ID NO: 76; sequence not printed in the text (AGQTSGMSPMEQLMKIFADITQSEFGDQDG; P13-54 peptide) [Peptide P13-54]
% Change Dry Weight (corn; [1]): −1.38% | % Change Fresh Weight (corn; [1]): −4.51* %

P13-55: P13 peptide variant tested in corn seed treatment, SEQ ID NO: 77; sequence not printed in the text (AGQTSGMSPMEQLMKIFADITQSLEGDQDG; P13-55 peptide) [Peptide P13-55]
% Change Dry Weight (corn; [1]): 0.81% | % Change Fresh Weight (corn; [1]): −3.84%

SQTSGMSPMEQLMEIFADITQSLF (P13-25 peptide) [Peptide P13-25]
% Change Dry Weight (corn; [2]): 3.01% | % Change Fresh Weight (corn; [2]): 2.63%
